The values below come from patent US20180208920A1, “MOLECULAR MACHINES” (Commonwealth Scientific and Industrial Research Organisation, priority 2015, published 2018).

The test system of one data set is CaNOX::AaE2. The data set is classed as biochemical, Alicyclobacillus acidophilus. The following applies: after 5 min incubation with inhibitor on ice.
Data set [1] relates to EcG3PD::CaNOX::AaE2 (TriF2). The format is biochemical, Alicyclobacillus acidophilus. The following applies: after 5 min incubation with inhibitor on ice.
Data set [2] is described as follows: Batch reactions converting glycerol to G3P and DHAP. The data set is classed as biochemical. The procedure:
Reactions were conducted at room temperature in 1 mL total volume with 10 mM glycerol as starting substrate, between 1 and 14 nM of enzyme and 100 μM each of ATP and NAD. Samples were collected at various time points and analysed by LCMS (SIM monitoring for G3P and DHAP).
G3P and DHAP were separated using a modification of the method described in Prieto-Blanc et al., (2010). Chromatographic conditions were SIELC ObeliscN column (250 mm) with 50% mobile phase A, 50% mobile phase B for 30 minutes. Mobile phase A: 0.1% formic acid; mobile phase b: methanol with 0.1% acetic acid. Mass spectrophotometric detection was conducted using API-ES mode with an Agilent 6120 Quadroploe LCMS. Glycerol-3-phosphate was quantified by selected ion monitoring of ion 171, DHAP quantified by selected ion monitoring of ion 169, the three aldol condensation products fructose-1,6-biphosphate, “AP” and “XP” were quantified by selected ion monitoring of […].

Another data set has as its system CaNOX. The experiment in a line: Kinetics of NADH oxidase (NOX) with modified cofactor. The format is biochemical, Clostridium aminoverlaricum. The following applies: for Kcat / Km: cofactor as substrate of CaNOX. The procedure: (§1) The relative enzyme activity for the NAD-dependant glycerol-3-phosphate dehydrogenase enzymes identified for DHAP synthesis was assessed with the modified N^6-2AE-NAD. Kinetic data for EcG3PD and CaNOX was also obtained. To determine the relative activities and kinetic enzyme efficiency, modified N^6-2AE-NAD was reduced enzymatically, separated from enzymes using ultrafiltration and the amount of N^6-2AE-NADH calculated based on the absorbance A340nm.

The target of the next data set is T1, EcG3PD2 (Escherichia coli, UniProt P0A6S7).
T1 construct: His tag; made in house; host or cells: E. coli BL21AI or BL21DE3*
T1 sequence (P0A6S7 1-339): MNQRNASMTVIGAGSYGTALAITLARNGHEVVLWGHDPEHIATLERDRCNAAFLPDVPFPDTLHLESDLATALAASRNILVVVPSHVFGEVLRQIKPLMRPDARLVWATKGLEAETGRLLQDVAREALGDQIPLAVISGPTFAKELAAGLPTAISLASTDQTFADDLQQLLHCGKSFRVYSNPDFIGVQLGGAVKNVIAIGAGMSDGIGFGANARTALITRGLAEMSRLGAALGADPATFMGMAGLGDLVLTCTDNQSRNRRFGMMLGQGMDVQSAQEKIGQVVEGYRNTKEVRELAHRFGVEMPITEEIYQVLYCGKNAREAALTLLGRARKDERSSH
The experiment in a line: Kinetics of glycerol-3-phosphate dehydrogenase with modified cofactor. The format is biochemical, E. coli. The following applies: EcG3PD, full kinetic analysis. The procedure: as §1
(§2) Glycerol-3-phosphate dehydrogenase assays were conducted essentially as described by (Sakasegawa et al., 2004). Kinetics were determined by varying the concentrations of NAD/NADP or glycerol-3-phosphate, whilst maintaining the other components in excess, and kinetic determinants were calculated using Hyper (J. S. Easterby, Liverpool University). Substrate and cofactor concentrations ranged from 0.1 to 10×Km.

Substrate in data set [3]: NCCNc1ncnc2c1ncn2[C@H]1O[C@@H](COP(=O)(O)OP(=O)(O)OC[C@H]2O[C@@H]([n+]3cccc(C(N)=O)c3)C(O)C2O)C(O)C1O
The description is as above. The format is biochemical, E. coli. The following applies: other: cofactor as substrate of EcG3PD2. The procedure:
as §1, §2

Substrate in data set [4]: NC(=O)c1ccc[n+]([C@@H]2O[C@H](COP(=O)([O-])OP(=O)(O)OC[C@H]3O[C@@H](n4cnc5c(N)ncnc54)[C@H](O)[C@@H]3O)[C@@H](O)[C@H]2O)c1
The description is as above. The data set is classed as biochemical, E. coli. The settings on record: other: cofactor as substrate of EcG3PD2. As for the experimental part: as §1, §2

As to `CCCCCCSCC(=O)C(F)(F)F` [1,1,1-trifluoro-3-(thiohexyl)propan-2-one], the residual esterase activity entry (with CaNOX::AaE2; in data set [1]) was “completely abolished” in each case.

`Nc1ncnc2c1ncn2[C@@H]1O[C@H](COP(=O)(O)OP(=O)(O)OP(=O)(O)O)[C@@H](O)[C@H]1O` [ATP, adenosine triphosphate]: the “turnover of ATP per hour” value in data set [2] (BiF1 plus BiF2 batch reaction) was roughly 40 h⁻¹. In addition, the “turnovers of ATP per batch reaction” value in data set [2] (BiF1 plus BiF2 batch, 90 mM conversion of glycerol from 0.1 mM ATP starting concentration) is roughly 200; in data set [2] (TriF1 plus TriF2 batch, 4.5 mM conversion of glycerol from 0.01 mM ATP starting concentration), roughly 450.

A word on the Km: it is the concentration of substrate that gives half-maximal velocity. With `NC(=O)C1=CN([C@@H]2O[C@H](COP(=O)(O)OP(=O)(O)OC[C@H]3O[C@@H](n4cnc5c(N)ncnc54)[C@H](O)[C@@H]3O)[C@@H](O)[C@H]2O)C=CC1` [NADH], in the data set with CaNOX, the Kcat turned out to be 1204 ± 67.5 s⁻¹ and the Michaelis constant (Km) was 204 ± 15.4 µM.

Turning to `NCCNc1ncnc2c1ncn2[C@H]1O[C@@H](COP(=O)(O)OP(=O)(O)OC[C@H]2O[C@@H]([n+]3cccc(C(N)=O)c3)C(O)C2O)C(O)C1O` (some centres unmarked) [N^6-2AE-NAD, N^6-(2-aminoethyl)-NAD^+], the “activity retained with the modified cofactor compared with unmodified NAD” value on EcG3PD2 is reported as 78%.

Regarding `NCCNc1ncnc2c1ncn2[C@@H]1O[C@H](COP(=O)(O)OP(=O)(O)OC[C@H]2O[C@@H](N3C=CCC(C(N)=O)=C3)[C@H](O)[C@@H]2O)[C@@H](O)[C@H]1O` [N^6-2AE-NADH], the “catalytic efficiency compared to NADH as substrate” value in the data set with CaNOX (NOX1 (CaNOX)) is “reduction in the catalytic efficiency”. For the same molecule, in the data set with CaNOX, the Kcat was found to be 343 ± 32.6 s⁻¹ and the Km was 215 ± 27.2 µM.

B1: EcG3PD2 (Escherichia coli K-12) (protein)
chain: T1 sequence (P0A6S7 1-339)
notes: His tag; made in house; host or cells: E. coli BL21AI or BL21DE3*
A word on the kcat: it is the maximal rate divided by the concentration of active sites. Usually kcat/Km stands for the second-order rate constant that governs catalysis at low substrate concentration. Consider B1, for which, in data set [3], the Km was determined as 181.2 ± 37.5 µM, the kcat amounted to 63.5 ± 9.4 s⁻¹ and the kcat/Km was 350000 M⁻¹ s⁻¹. For the same molecule, in data set [4], the Michaelis constant (Km) is 147.1 ± 25.4 µM, the catalytic constant (kcat) amounted to 66.7 ± 10.6 s⁻¹ and the kcat/Km amounted to 450000 M⁻¹ s⁻¹.
